US4065453A, “Levorotatory molindone and the use as an antidepressant” (Endo Laboratories, Inc., priority 1976, dated 1977)

How the values were obtained:
[1] = Rat Conditioned Avoidance Response (rat CAR); type: in vivo; settings: for ED50: po, rat, p.o., block of conditioned avoidance response in 50% of rats, tested 1, 2 and 4 hours after dosing, column 4
Experimental: Blocking of CAR in rats at nontoxic doses correlates with major tranquilizer activity in man. Rats are trained to jump out of a pit onto a ledge to avoid shock when presented with a conditioned stimulus of light and sound. Three or four doses of durg are given to a group of 4-8 rats. The animals are tested 1, 2 and 4 hours after dosing. A quantal ED50 is calculated as the dose which would block the CAR in 50% of the rats. The results are given in mg/kg., p.o. (Table 1) The ED50 's for the compound of the present invention and for the molindone racemic mixture are given in the following table, along with certain appropriate ratios: […]

[2] = Exploratory Loss; type: in vivo, mouse; settings: for ED50: po, mouse, p.o., loss of exploratory activity, column 3, read-out: ED50 mouse EXPL. LOSS
Excerpt: The mouse is placed on a stainless steel wire mesh screen (8 × 12 inches, 3 mesh per inch, 1/4inch mesh openings) "shoe-box" lid (1inch high) and is observed for normal activities, such as nose movements, head movements with apparent visual examination of the area, and/or walking around on the screen. Normal mice respond within 2 to 3 seconds. Absence of or a marked depression of these activities for 5 seconds constitutes a loss of exploratory activity. The ED50 's for the compound of the present invention and for the molindone racemic mixture are given in the following table, along with certain appropriate ratios: […]

[3] = Tetrabenazine Antagonism (Anti-TBZ); type: in vivo, mouse (Carworth CF1 S female mice); settings: for ED50: po, 1 h, mouse, p.o., tetrabenazine 32 mg/kg i.p. 30 min after compound
Experimental: Groups of 10 Carworth CF1 S female mice, 18-21 g each, were fasted 1.5 hours and were incubated with antagonist compounds at oral doses of 0, 5, 25, and 125 mg/kg or 0, 1, 3, 9, 27, and 81 mg/kg in 0.20 ml of 1% Methocel. The mice were challenged 30 minutes later with tetrabenazine (as the methanesulfonate), 32 mg/kg intraperitoneally (dissolved in 0.20 ml 0.05M KCl at pH 2.0). One hour after antagonist (30 minutes after tetrabenzaine), the mice were examined for signs of exploratory activity and ptosis (eyelid closure). Normal exploratory activity (relief from sedation) was recorded when a mouse lifted by the tail from a group of 10 in a testing box and placed on a stainless steel testing box lid (12.5 × 8 inches with 0.33 inch mesh) either turned its head horizontally 30° in both directions or moved to the edge of the screen within 10 seconds after being placed on the screen. Relief from ptosis was recorded when exactly two seconds after placing the mouse facing the observer, lid closure was less than 50% in both eyes.
The ED50 's for the compound of the present invention and for the molindone racemic mixture are given in the following table, along with certain appropriate ratios: […]

[4] = relief from ptosis, column 1, read-out: ED50 mouse ANTI-TBZ ptosis
[5] = relief from sedation (exploratory activity), column 2, read-out: ED50 mouse ANTI-TBZ expl. loss

For CCc1c(C)[nH]c2c1C(=O)C(CN1CCOCC1)CC2 (single isomer, unassigned; (-)) [(-)-molindone], the “tranquilizer activity compared with the racemate” value ([1]; in words) was “approximately the same sedative and tranquilizer activity as the racemate”, the ED50 [1] was 21 mg/kg and the “separation of the antidepressant activity from the sedative activity” value ([2]; as compared with the racemate, from the ratios in the table, in words) was “clear separation of the antidepressant activity from the sedative activity”. The “sedative activity compared with the racemate” value ([2]; in words) was “approximately the same sedative and tranquilizer activity as the racemate”, the ED50 [2] was 25 mg/kg and the “antidepressant activity compared with the racemate” value ([3]; in words) was “significantly greater antidepressant activity”. For the same molecule, the ED50 [3, 4] was 2.7 mg/kg and the ED50 [3, 5] was 3.4 mg/kg.
CCc1c(C)[nH]c2c1C(=O)C(CN1CCOCC1)CC2 (racemic) [(±)-molindone, 3-ethyl-6,7-dihydro-2-methyl-5(morpholinomethyl)indol-4(5H)-one, reference compound] showed an ED50 [1] of 28 mg/kg, an ED50 [2] of 38 mg/kg and an ED50 [3, 4] of 7.2 mg/kg. It also gave an ED50 [3, 5] of 9 mg/kg.
